This passage reports MIC and IC50 results from ChEMBL document CHEMBL4840374, “Cytochalasin Derivatives from the Endozoic Curvularia verruculosa CS-129, a Fungus Isolated from the Deep-Sea Squat Lobster Shinkaia crosnieri Living in the Cold Seep Environment” (J Nat Prod, 2021).

One test relates to Edwardsiella tarda. Kind of test: Antibacterial activity against […] QDIO-10 assessed as reduction in microbial growth by microtiter plate reader assay. The class given is functional.
The next test concerns HCT-116. In words: Cytotoxicity against human HCT-116 cells assessed as reduction in cell viability after 72 hrs by MTT assay. The format is functional, cell-based.
For a further test, the system named is HepG2. Kind of test: Cytotoxicity against human HepG2 cells assessed as reduction in cell viability after 72 hrs by MTT assay. The format is functional, cell-based.
For a further test, the system named is MCF7. In words: Cytotoxicity against human MCF7 cells assessed as reduction in cell viability after 72 hrs by MTT assay. The class given is functional, cell-based.
Another test deals with Escherichia coli. In words: Antibacterial activity against Escherichia coli EMBLC-1 assessed as reduction in microbial growth by microtiter plate reader assay. The class given is functional.
The next test has as its system Vibrio parahaemolyticus. In words: Antibacterial activity against Vibrio parahaemolyticus QDIO-8 assessed as reduction in microbial growth by microtiter plate reader assay. The class given is functional.
Where [1] appears, read: Homo sapiens, HCT-116, 72 h, read-out: IC50.
The mark [2] stands for this setting: Homo sapiens, HepG2, 72 h, read-out: IC50.
The mark [3] stands for this setting: Homo sapiens, MCF7, 72 h, read-out: IC50.

In the case of `C=C1[C@@H](C)[C@H]2[C@H](Cc3ccccc3)NC(=O)[C@]23OC(=O)/C=C/[C@H](O)[C@H](O)CC[C@@H](C)C/C=C/[C@H]3[C@@H]1O`, in the test on Edwardsiella tarda, the MIC was 8 µg/mL. The results for the IC50 in the test with HCT-116 (setting [1]), in the test on HepG2 (setting [2]) and with MCF7 (setting [3]) were 9.5 µM, 6.4 µM and 6 µM, respectively.

On to `C[C@H]1C/C=C/[C@H]2[C@@H]3O[C@]3(C)[C@@H](C)[C@H]3[C@H](Cc4ccccc4)NC(=O)[C@]32OC(=O)/C=C/[C@H](O)CCC1`, for which the MIC in the test on Edwardsiella tarda stood at 8 µg/mL.

For `C=C1[C@@H](C)[C@H]2[C@H](Cc3ccccc3)NC(=O)[C@]23OC(=O)/C=C/CCCC[C@@H](C)C/C=C/[C@H]3[C@@H]1O`, the IC50 result with HCT-116 (hct-116), in the test with HepG2 (hepg2) and in the test with MCF7 (mcf7) was “Not Active” throughout.

As for `C=C1[C@@H](C)[C@H]2[C@H](Cc3ccccc3)NC(=O)[C@]23OC(=O)[C@@H](S[C@H]2CC(=O)CCC[C@@H](C)C/C=C/[C@H]4[C@H](O)C(=C)[C@@H](C)[C@H]5[C@H](Cc6ccccc6)NC(=O)[C@]54OC2=O)CC(=O)CCC[C@@H](C)C/C=C/[C@H]3[C@@H]1O`, the MIC in the test with Escherichia coli came out at 2 µg/mL.

On to `O=C(N[C@H](CO)[C@H](O)c1ccc([N+](=O)[O-])cc1)C(Cl)Cl` [CHLORAMPHENICOL], for which the MIC in the test on Edwardsiella tarda amounted to 0.5 µg/mL; in the test with Vibrio parahaemolyticus, 2 µg/mL.

On to `C=C1[C@@H](C)[C@H]2[C@H](Cc3ccccc3)NC(=O)[C@]23OC(=O)/C=C/[C@H](O)CCC[C@@H](C)C/C=C/[C@H]3[C@@H]1O` [CYTOCHALASIN B], for which the MIC in the test with Vibrio parahaemolyticus came to 4 µg/mL. Also, the IC50 in the test on HCT-116 (setting [1]) was determined as 12 µM; in the test on HepG2 (setting [2]) it was 9.5 µM; in the test with MCF7 (setting [3]), 5.2 µM.

Take `C=C1[C@@H](C)[C@H]2[C@H](Cc3ccccc3)NC(=O)[C@]23C(=O)/C=C/[C@H](O)CCC[C@@H](C)C/C=C/[C@H]3[C@@H]1O` [DEOXAPHOMIN]: the values for the IC50 in the test on HCT-116 (setting [1]), in the test on HepG2 (setting [2]) and with MCF7 (setting [3]) were 7.6 µM, 7.1 µM and 7 µM, respectively.
